Paper PMC10761647, “β-carboline derivative Z86 attenuates colorectal cancer cell proliferation and migration by directly targeting PI3K” (Natural Products and Bioprospecting, 2024)

Molecular target: T1, PI3Kα (Homo sapiens, UniProt P42336)
T1 construct: gene PIK3CA
Assay: PI3-Kinase Activity ELISA (PIP3 production) with purified PI3Kα; supported by CETSA and DARTS in HCT116 and SW480 cells/lysates
Assay type: biochemical

T1 sequence (P42336 whole entry): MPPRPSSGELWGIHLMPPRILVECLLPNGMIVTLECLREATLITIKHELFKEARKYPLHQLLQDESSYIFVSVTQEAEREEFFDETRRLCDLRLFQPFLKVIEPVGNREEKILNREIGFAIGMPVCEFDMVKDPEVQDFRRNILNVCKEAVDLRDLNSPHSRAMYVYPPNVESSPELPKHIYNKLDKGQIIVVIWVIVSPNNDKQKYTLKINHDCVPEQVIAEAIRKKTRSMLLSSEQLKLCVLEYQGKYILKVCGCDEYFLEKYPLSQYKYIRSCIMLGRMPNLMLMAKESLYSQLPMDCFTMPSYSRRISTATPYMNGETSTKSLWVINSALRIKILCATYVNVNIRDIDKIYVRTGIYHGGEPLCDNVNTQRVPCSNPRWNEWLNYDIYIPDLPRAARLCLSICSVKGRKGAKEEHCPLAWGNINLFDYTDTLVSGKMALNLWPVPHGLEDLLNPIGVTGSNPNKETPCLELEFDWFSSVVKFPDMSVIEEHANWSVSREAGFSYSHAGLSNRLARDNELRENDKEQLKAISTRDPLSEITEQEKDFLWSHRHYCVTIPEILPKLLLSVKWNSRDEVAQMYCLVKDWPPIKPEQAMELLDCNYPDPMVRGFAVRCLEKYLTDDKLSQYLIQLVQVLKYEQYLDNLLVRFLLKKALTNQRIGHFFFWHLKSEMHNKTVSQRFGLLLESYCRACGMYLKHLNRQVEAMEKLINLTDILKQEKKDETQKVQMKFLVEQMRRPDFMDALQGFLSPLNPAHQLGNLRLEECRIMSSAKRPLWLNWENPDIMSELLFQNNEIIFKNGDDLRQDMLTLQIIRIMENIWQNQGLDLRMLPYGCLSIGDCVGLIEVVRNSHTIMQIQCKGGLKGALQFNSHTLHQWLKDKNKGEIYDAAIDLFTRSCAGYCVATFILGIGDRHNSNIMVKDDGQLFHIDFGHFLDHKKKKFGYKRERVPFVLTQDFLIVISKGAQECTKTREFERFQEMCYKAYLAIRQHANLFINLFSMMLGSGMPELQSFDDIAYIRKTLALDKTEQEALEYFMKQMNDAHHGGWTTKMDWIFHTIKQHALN
T1 sequence (P27986 2-724 partner): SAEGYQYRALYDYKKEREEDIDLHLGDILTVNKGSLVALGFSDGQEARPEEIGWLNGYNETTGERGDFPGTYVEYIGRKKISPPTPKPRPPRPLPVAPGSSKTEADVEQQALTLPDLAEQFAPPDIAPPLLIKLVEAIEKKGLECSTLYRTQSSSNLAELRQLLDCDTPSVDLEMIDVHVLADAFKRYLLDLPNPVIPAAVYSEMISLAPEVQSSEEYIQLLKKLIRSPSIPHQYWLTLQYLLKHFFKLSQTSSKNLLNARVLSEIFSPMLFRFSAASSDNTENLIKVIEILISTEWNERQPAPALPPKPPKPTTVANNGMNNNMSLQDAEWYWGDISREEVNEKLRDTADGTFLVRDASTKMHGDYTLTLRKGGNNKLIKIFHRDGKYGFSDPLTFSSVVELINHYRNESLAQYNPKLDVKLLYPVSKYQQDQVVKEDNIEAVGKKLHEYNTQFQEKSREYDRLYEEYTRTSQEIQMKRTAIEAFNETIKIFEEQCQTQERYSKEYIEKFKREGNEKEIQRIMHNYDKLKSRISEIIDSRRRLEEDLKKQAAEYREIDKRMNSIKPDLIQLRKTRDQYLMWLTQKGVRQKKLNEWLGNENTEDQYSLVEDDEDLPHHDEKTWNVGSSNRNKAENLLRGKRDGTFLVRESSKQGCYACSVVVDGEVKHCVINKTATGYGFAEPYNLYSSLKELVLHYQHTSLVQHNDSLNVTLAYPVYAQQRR

IC50: 4.28 µM
Structure (SMILES): CCn1c2ccccc2c2cc(C(=O)OC(C)C)nc(-c3cccc4ccccc34)c21 [Z86, isopropyl 9-ethyl-1-(naphthalen-1-yl)-9 H-pyrido[3,4-b] indole-3-carboxylate]
